Test results as given in patent US8496928B2, “Method for preventing and treating cardiovascular diseases with BRCA1” (priority 2008, dated 2013).

Test system: HUVECs
Assay: HUVEC apoptosis assays (Annexin V-FITC/PI flow cytometry, cleaved caspase-3, DNA fragmentation)
Type: cell-based, human
Settings: ad-null infected HUVECs, TNFα 20 ng/ml 24 hours
Experimental: In FIG. 23A ad-null or ad-BRCA1 infected HUVECs were treated with TNFα (20 ng/ml) for 24 hours. Cells were harvested for Annexin V-FITC and Propidium Iodide staining followed by flow cytometry. Total apoptotic cells are shown as mean±SD (n=3 in triplicate, **p<0.01). In FIG. 23B, HUVECs were treated with either siBRCA1 (10 nM) or scrambled siRNA (10 nM) for 24 hours. BRCA1-silenced and control HUVECs were treated with TNFα (20 ng/ml), stained with Annexin V-FITC and Propidium Iodide, and analyzed by flow cytometry. The percentage of total apoptotic cells are presented as mean±SD (n=3 in triplicate, **p<0.01). […] Data was calculated as the percentage of total apoptotic cells and presented as mean±SD (n=3 in triplicate, **p<0.01).
FIG. 31 is a bar graph showing protection of HUVECs against doxorubicin-induced apoptosis by BRCA1 overexpression. […] Data was calculated as the percentage of total apoptotic cells and presented as mean±SD (n=3 in triplicate, *p<0.01 vs. Ad-null group, †p<0.01 vs. Ad-null+2 μM Dox group). […]
Human umbilical vein endothelial cells (HUVECs) were purchased from Cambrex and cultured in MCDB-131 complete medium (Cambrex Corporation). […] These concentrations were determined from pilot optimization studies. […]
Apoptotic and necrotic cell death were assessed in ad-BRCA1 and ad-null infected HUVECs by flow cytometry coupled with the BD Annexin V-FITC Apoptosis Detection Kit. […]

TNFα
apoptosis: significant apoptosis
